Tested on: M2 of influenza viruses A (H1N1)
Conditions: almost all the ORVs

**Q.** `NC12CC3CC(CC(C3)C1)C2` [amantadine] was tested. Which “susceptibility by M2 sequencing (in words)” value did it give?
**A.** The value was “sensitive”.

Source: publication PMC3086245 (Emerging Infectious Diseases, 2010)
